# In PMC4992410 (ACS chemical biology, 2016):
# Test system: full-length IRE1α in INS-1 rat insulinoma cells
# Experiment: XBP1 mRNA splicing in INS-1 cells
# Type: cell-based
# Details: absence of ER stress; for spliced cellular XBP1 mRNA levels: 3 and 10 μM, 2 hours
Structure (SMILES),spliced cellular XBP1 mRNA levels,spliced XBP1 mRNA level compared with 0.5 μg/mL tunicamycin
O=C(Nc1c[nH]nc1-c1nc2ccc(CN3CCOCC3)cc2[nH]1)NC1CC1 [AT9283],increase in spliced cellular XBP1 mRNA levels,equal or greater level
COc1cc(N2CCC(N3CCN(C)CC3)CC2)ccc1Nc1ncc(Cl)c(Nc2ccccc2S(=O)(=O)C(C)C)n1 [TAE684],increase in spliced cellular XBP1 mRNA levels,–
COc1cc(N2CCC(N3CCN(C)CC3)CC2)ccc1Nc1ncc(Cl)c(Nc2ccccc2P(C)(C)=O)n1 [AP26113],increase in spliced cellular XBP1 mRNA levels,equal or greater level
NC(=O)Nc1cc(-c2cccc(F)c2)sc1C(=O)N[C@H]1CCCNC1 [AZD7762],increase in spliced cellular XBP1 mRNA levels,–
